# From PMC6643297 (Cell metabolism, 2018)
# pIC50: −log10 of the molar value.
# How the values were obtained:
# [1] = molecular target: ACC1 (acetyl-CoA carboxylase 1) (Homo sapiens, UniProt Q13085); test: ACC1 enzyme inhibition assay; type: biochemical
# [2] = molecular target: ACC2 (acetyl-CoA carboxylase 2) (Homo sapiens, UniProt O00763); test: ACC2 enzyme inhibition assay; type: biochemical
# Sequence of ACC2 (acetyl-CoA carboxylase 2) (O00763 whole entry): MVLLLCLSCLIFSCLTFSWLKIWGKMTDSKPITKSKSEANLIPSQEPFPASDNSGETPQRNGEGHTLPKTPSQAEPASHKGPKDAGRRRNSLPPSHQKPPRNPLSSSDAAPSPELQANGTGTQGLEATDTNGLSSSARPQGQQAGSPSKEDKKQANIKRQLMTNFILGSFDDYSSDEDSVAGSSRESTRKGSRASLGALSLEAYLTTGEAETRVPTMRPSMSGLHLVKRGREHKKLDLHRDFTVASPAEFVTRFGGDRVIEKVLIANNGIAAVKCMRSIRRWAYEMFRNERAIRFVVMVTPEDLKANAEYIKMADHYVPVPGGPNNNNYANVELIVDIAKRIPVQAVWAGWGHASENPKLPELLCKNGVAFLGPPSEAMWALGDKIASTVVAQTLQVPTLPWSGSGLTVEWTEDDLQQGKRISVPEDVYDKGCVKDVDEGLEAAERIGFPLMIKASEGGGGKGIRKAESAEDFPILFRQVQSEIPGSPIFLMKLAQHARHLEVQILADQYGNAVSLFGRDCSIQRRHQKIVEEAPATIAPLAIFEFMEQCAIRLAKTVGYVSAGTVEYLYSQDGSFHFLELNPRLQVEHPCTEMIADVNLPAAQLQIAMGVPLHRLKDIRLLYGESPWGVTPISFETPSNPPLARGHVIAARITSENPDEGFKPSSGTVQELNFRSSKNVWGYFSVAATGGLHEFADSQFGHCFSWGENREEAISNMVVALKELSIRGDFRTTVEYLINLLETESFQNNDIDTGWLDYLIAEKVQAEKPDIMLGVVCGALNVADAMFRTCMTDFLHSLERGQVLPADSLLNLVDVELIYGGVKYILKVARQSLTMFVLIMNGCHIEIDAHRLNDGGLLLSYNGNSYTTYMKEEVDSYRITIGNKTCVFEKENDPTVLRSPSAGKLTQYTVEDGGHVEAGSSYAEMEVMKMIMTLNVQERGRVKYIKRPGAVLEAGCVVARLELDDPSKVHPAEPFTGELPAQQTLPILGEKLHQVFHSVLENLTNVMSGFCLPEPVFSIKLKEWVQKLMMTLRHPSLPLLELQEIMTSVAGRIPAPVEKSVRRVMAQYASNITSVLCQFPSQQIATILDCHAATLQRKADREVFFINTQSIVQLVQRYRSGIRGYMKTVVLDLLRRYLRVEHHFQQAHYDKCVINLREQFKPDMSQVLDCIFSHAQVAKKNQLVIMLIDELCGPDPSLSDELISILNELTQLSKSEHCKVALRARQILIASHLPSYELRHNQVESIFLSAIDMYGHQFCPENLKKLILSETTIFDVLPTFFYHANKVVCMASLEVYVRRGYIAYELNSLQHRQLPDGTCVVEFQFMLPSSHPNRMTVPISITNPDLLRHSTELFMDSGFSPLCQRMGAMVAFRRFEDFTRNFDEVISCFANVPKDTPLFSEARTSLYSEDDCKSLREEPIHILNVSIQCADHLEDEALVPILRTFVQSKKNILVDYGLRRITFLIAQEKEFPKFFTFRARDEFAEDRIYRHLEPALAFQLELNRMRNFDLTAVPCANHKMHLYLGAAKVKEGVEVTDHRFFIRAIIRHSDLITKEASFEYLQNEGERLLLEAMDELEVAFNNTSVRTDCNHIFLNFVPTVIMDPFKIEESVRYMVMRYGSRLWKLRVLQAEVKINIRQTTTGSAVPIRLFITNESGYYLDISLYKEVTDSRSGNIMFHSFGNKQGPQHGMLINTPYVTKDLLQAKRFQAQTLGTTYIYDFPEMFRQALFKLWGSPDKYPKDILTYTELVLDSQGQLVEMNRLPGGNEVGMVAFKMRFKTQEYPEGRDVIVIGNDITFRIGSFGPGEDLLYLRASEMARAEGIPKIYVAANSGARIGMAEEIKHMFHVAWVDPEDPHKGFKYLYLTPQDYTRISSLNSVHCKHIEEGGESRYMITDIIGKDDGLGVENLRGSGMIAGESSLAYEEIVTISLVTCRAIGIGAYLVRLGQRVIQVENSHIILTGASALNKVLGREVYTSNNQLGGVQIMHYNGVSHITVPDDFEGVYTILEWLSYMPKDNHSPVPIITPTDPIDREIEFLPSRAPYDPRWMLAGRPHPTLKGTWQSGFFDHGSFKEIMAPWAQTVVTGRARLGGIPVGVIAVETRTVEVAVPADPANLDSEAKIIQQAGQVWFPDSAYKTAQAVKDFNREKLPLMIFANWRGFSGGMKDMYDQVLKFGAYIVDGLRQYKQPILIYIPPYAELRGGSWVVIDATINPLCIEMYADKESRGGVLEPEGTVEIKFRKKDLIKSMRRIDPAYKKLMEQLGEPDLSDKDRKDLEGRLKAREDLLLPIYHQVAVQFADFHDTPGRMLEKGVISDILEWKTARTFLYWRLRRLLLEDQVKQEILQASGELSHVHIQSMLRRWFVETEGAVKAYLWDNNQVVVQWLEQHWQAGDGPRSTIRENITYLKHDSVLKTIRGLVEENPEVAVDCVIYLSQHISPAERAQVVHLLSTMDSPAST
substance,measurement,setting,value
ND-654,pIC50,[1],8.52
same,pIC50,[2],8.10
